≈ marks a conversion by molar mass, not a printed value.

Data on one molecule can be found in PMC9070039, “Synthesis and evaluation of antimicrobial activity, cytotoxic and pro-apoptotic effects of novel spiro-4H-pyran derivatives” (RSC Advances, 2019).

One assay has as its system Bcl-2. Put plainly: Real-time RT-PCR, Bcl-2 mRNA expression. It is filed as cell-based, human. The conditions noted are these: A549 cells, 40 μM, 48 h. From the text:
(§1) Finally, we confirmed that apoptosis mediated by mitochondria induces in A549 cells. It is well known that the anti-apoptotic Bcl-2 protein is localized on the outer mitochondrial membranes and antagonizes the action of pro-apoptotic Bax. The balance between these two proteins prevents translocation of cytochrome c from the mitochondria to cytoplasm and determines the apoptosis resistance. Down-regulation of Bcl-2 and/or up-regulation of Bax disturb this balance and leads to apoptosis (Fig. 3A).
(§2) For quantitative real-time RT-PCR analysis, after 48 h of treatment with 40 μM of related drug (5a), A549 cells was lysed and the total RNA was extracted using 500 μL of Trizol® reagent according to the protocol provided by the manufacturer (Invitrogen Life Technologies, Carlsbad, CA, USA) followed by reverse transcription into cDNA according to manufactures protocol (ReveretAid M-Mulv reverse transcriptase kit, Thermo Fisher Scientific, MA, USA). Real-time RT-PCR was then performed to amplify cDNA using SYBR green dye universal master mix (Bioron GmbH, Germany), on a Light Cycler 480 (Roche) using the primers for GAPDH-F: 5′-CAA GGT CAT CCA TGA CAA CTTTG-3′, R:5′-[…]-3′; Bax-F:5′-[…]-3′, R: 5′-[…]-3′and Bcl-2-F: 5′-[…]-3′, R: 5′- […]-3′for forty cycles. Data represent averaged copy number normalized to the GAPDH housekeeping gene. Primer synthesis was done by Pishgam Biotech Co. Tehran, Iran. […]

The test system of a further assay is E. coli. Put plainly: Disk diffusion antibacterial test. The format is cell-based, Escherichia coli. On the set-up: key: —: inactive at concentration 50 mM. The conditions noted are these: disc diffusion test, concentration 50 mM. How it is done: (§3) Antibacterial effects of spiro[indeno[2,1-c]pyridazine-9,4′-pyran]-3′,4-dicarbonitrile derivatives 5a–j were evaluated in vitro by using disk diffusion method against Gram-positive (S. aureus) and Gram negative (E. coli). The diameter of inhibition zone correlates to the sensitivity of a bacterium to an antibacterial agent. […] E. coli was resistant against all compounds tested (Table 2). Tetracycline and DMSO were used as positive control and negative control respectively. Next, the active compounds were analysed using MIC assay to determine the lowest concentration for inhibition. […] It seems due to the difference in structure of bacterial cell wall (i.e., the presence of outer membrane with lipid, lipopolysaccharide, and lipoprotein content in Gram negative bacteria), E. coli was resistant against the related synthetic compounds.
(§4) Antibacterial activity of the prepared synthetic compounds against the Gram-negative bacteria (E. coli; ATCC: 15922) and the Gram-positive bacteria (S. aureus; PTCC: 1112, International no. ATCC6538P) were examined by disk diffusion assay. Bacterial cultures were obtained from Persian Type Culture Collection, Tehran, Iran (PTCC). Isolated pure colonies from fresh grown bacteria were transferred from the plates into sterile normal saline solution and it was vortexed to form bacterial homogenous suspensions. The turbidity was then adjusted to 0.5 McFarland standard units, and the suspensions were poured over Mueller–Hinton agar (MHA) plates. Sterile filter paper disks were placed over these plates. The sterile disks were impregnated with the tested compounds. Positive control (tetracycline) and negative control ([…]) were used. To determine MIC, the concentrations of tested substance were prepared within the range from 30–5 mM. Incubate in incubator at 37 °C in 24 h for bacteria (Table 2).
(A growth-free zone around the sample is the usual read-out of agar diffusion tests.)

Assay [1] concerns A549 cells. As to the kind of experiment: DAPI staining assay. It is filed as cell-based, human. The conditions noted are these: 24 h treatment. On the procedure:
(§5) At first, in order to compare anti-cancer properties, the synthesized compounds 5a–j were evaluated against A549 cells, MCF-7 cells, A375 cells, PC3 cells, LNCaP cells and HDF cells lines using the MTT colorimetric assay. The activity is expressed as 50% growth inhibitory concentration (IC50) values at 48 h. We used DMSO (1%) as negative control and Etoposide as positive control.
DAPI staining assay was used to determine chromatin changes. A549 cells were seeded in six well plates (5 × 10^4 cells per well) containing 12 mm cover-slips and subsequently treated for compound 5a (sample or treated cells) and DMSO (control or untreated cells) for 24 h. Cells then were fixed with 3.7% paraformaldehyde, permeabilized in 0.5% (w/v) Triton X-100, 1% BSA (w/v) for 5 min, washed in PBS, and stained with DAPI (Sigma-Aldrich, USA). All images were taken by an inverted fluorescent microscope (Nikon Eclipse Ti-E).

The test system of assay [2] is S. aureus. Put plainly: Disk diffusion antibacterial test. The conditions noted are these: there called agar dilution method. The format is cell-based, Staphylococcus aureus. On the procedure: as §3, §4
The test system of assay [3] is A549 cells. Put plainly: MTT cytotoxicity assay. It is filed as cell-based. The conditions noted are these: Homo sapiens, 48 h. On the procedure:
as §5
(§6) Human non-small-cell lung cancer A549 cells, human breast cancer MCF-7 cells, human malignant melanoma cells (A375), human prostate cancer cells (PC3 cells, LNCaP cells) and normal cells HDF (human dermal fibroblast) were received from Pasture Institute, Tehran, Iran. MCF-7 cells were grown in RPMI 1640 medium, A549 cells, A375 cells, PC3 cells, LNCaP cells and HDF cells were grown in DMEM medium. All media contain 10% fetal bovine serum (FBS), penicillin G, streptomycin 100 μg mL^−1 and 1% L-glutamine. The cells were cultured and incubated under humidified 5% CO2 atmosphere at 37 °C.
(§7) The effect of compounds treatment on the viability of cancer cell lines was measured by (3-(4,5-dimethylthiazol-2-yl)-2,5-diphenyl tetrazolium bromide or MTT) assay (MTT assay kit, Bio IDEA, CatNo: BI1017, Iran) based on the ability of live cells to cleave the tetrazolium ring to a molecule that absorb at […] as per the manufacturer's instructions.[33] Etoposide (was kindly provided by Dr A. Foroumadi, Tehran medical Science University, Iran) and dimethyl sulfoxide (or DMSO) was used as positive and negative controls, respectively.[34] Briefly, cells were plated in 96-well culture plates (5 × 10^3 cells per well). After 24 h incubation, the cells were treated with different concentrations of the compounds. After 48 h at 37 °C, the medium was removed and 100 μL of MTT reagent (1 mg mL^−1) was added to each well, and cells were further incubated at 37 °C for 4 h. The MTT solution was removed, 50 μL of DMSO was added to each well to dissolve formazan crystals, and the plates were gently shaken for 10 minutes, followed by reading with an ELISA plate reader (BiotekELx 800, USA). The 50% inhibition concentration (IC50) was defined as the concentration that inhibited cell proliferation by 50% when compared to DMSO treated cells (as negative control).

Another assay relates to LNCaP cells. Put plainly: MTT cytotoxicity assay. It is filed as cell-based. The conditions noted are these: Homo sapiens, 48 h. How it is done: as §5, §6, §7
The next assay relates to PC3 cells. As to the kind of experiment: MTT cytotoxicity assay. The format is cell-based. The conditions noted are these: Homo sapiens, PC-3, 48 h. On the procedure: as §5, §6, §7
(Tetrazolium dyes change colour on reduction, which living cells bring about.)

In the next assay the test system is A375 cells. Put plainly: MTT cytotoxicity assay. The format is cell-based. The conditions noted are these: Homo sapiens, A-375, 48 h. On the procedure: as §5, §6, §7
The test system of the next assay is MCF-7 cells. As to the kind of experiment: MTT cytotoxicity assay. The conditions noted are these: Homo sapiens, MCF7, 48 h. The format is cell-based. How it is done:
as §5, §6, §7

The next assay concerns HDF cells. Put plainly: MTT cytotoxicity assay. The conditions noted are these: 48 h, normal cells (human dermal fibroblast). It is filed as cell-based. How it is done: as §5, §6, §7
The test system of assay [4] is S. aureus. As to the kind of experiment: MIC determination. It is filed as cell-based. The conditions noted are these: Staphylococcus aureus; read-out: MICs (mM) S. aureus. On the procedure: as §3, §4
In the next assay the test system is Bax. Put plainly: Real-time RT-PCR, Bax mRNA expression. The format is cell-based, human. The conditions noted are these: A549 cells, 40 μM, 48 h.
Text: as §1, §2
(Quantitative PCR measures a nucleic acid by following its amplification.)

As for `Cn1c2c(c(=O)n(C)c1=O)C1(C(C#N)=C(N)O2)c2ccccc2-c2c1n[nH]c(=O)c2C#N` (stereo not drawn) [5a, 7′-Amino-1′,3′-dimethyl-2′,3,4′-trioxo-1′,2,2′,3,3′,4′-hexahydrospiro[indeno[2,1-c]pyridazine-9,5′-pyrano[2,3-d]pyrimidine]-4,6′-dicarbonitrile], in the assay with Bcl-2, the “Relative expression of Bcl-2 mRNA” value is reported as “down-regulation expression”. Further, the “Inhibition zone (mm) E. coli” value in the assay with E. coli is recorded as “—”. For the same molecule, in the assay with A549 cells [1], the “Chromatin changes / cell death by DAPI staining” value is reported as “induced cell death in A549 cells”. Further, in the assay on S. aureus [2], the “Sensitivity of S. aureus to compound” value is “sensitive”. In addition, the IC50 (as a rule, the midpoint of a concentration-inhibition curve) was 40 ± 0.007 µM in the assay with A549 cells [3]; 32.15 ± 0.046 µM in the assay with LNCaP cells; above 100 µM in the assay with PC3 cells; 70.72 ± 0.064 µM in the assay on A375 cells; above 100 µM in the assay with MCF-7 cells; above 100 µM with HDF cells. The MIC in the assay on S. aureus [4] was 5 mM (≈ 2140 µg/mL). In addition, the “Relative expression of Bax mRNA” value with Bax is reported as “up-regulated expression”.
